# Laboratory results taken from US20250135022A1, “METHODS FOR THE USE OF A B7-H3 ANTIBODY-DRUG CONJUGATE IN COMBINATION WITH A PD-1 X CTLA-4 BISPECIFIC MOLECULE” (MACROGENICS, INC., priority 2022, published 2025).
# Key:
# Calu-6 lung cancer cells = assay: Anti-tumor activity against subcutaneously implanted Calu-6 xenograft in SCID CES1c-KO mouse model; format: in vivo, SCID CES1c-KO mice; design: key to Anti-Tumor Activity: Highly Active: A T/C<10% is considered highly active; Active: a T/C≤42% is the minimum level of anti-tumor activity; Inactive: a T/C value of >42% is inactive
# Description: In brief, ˜5×10^6 tumor cells (suspended in 1:1 media and MATRIGEL®) were subcutaneously implanted into the flank of female SCID CES1c-KO mice (Charles River Laboratories). When tumors had reached a volume of approximately 50-180 mm^3 (average 105 mm^3) on day 16, the mice were randomized and MGC018 or control vehicle were administered intravenously. In these studies, mice were administered either a single dose (1 mg/kg or 3 mg/kg, QW×1) of MGC018 or a fractionated dose of MGC018 (0.3 mg/kg or 1 mg/kg) once a week for 4 weeks (QW×4W). Vehicle was administered as a control on day 16. Tumors were measured twice weekly by orthogonal measurements with electronic calipers, with tumor volumes calculated as: (length×width×height)/2. The tumor volume (relative to control) was determined (“T/C”). A finding that the tumor volume of treated animals had decreased to ≤5 mm^3 during the study period was considered to denote a Complete Regression (“CR”) and a Partial Regression (“PR”) was defined when tumors were reduced by 50% or greater from day of dosing at any point during the study.
# [1] = test system: MDA-MB-468 triple negative breast cancer cells; assay: Anti-tumor activity against subcutaneously implanted MDA-MB-468 xenograft in SCID CES1c-KO mouse model; format: in vivo, SCID CES1c-KO mice; design: key to Anti-Tumor Activity: Highly Active: A T/C<10% is considered highly active; Active: a T/C≤42% is the minimum level of anti-tumor activity; Inactive: a T/C value of >42% is inactive
# Description: In brief, ˜5×10^6 tumor cells (suspended in 1:1 media and MATRIGEL®) were subcutaneously implanted into the flank of female SCID CES1c-KO mice (Charles River Laboratories). When tumors had reached a volume of approximately 45-135 mm^3 (average 73 mm^3) on day 54, the mice were randomized and MGC018 or control vehicle were administered intravenously. In these studies, mice were administered either a single dose (1 mg/kg or 3 mg/kg, QW×1) of MGC018 or a fractionated dose of MGC018 (0.3 mg/kg or 1 mg/kg) once a week for 4 weeks (QW×4W). Vehicle was administered as a control on day 54. Tumors were measured twice weekly by orthogonal measurements with electronic calipers, with tumor volumes calculated as: (length×width×height)/2. The tumor volume (relative to control) was determined (“T/C”). A finding that the tumor volume of treated animals had decreased to ≤5 mm^3 during the study period was considered to denote a Complete Regression (“CR”) and a Partial Regression (“PR”) was defined when tumors were reduced by 50% or greater from day of dosing at any point during the study.
# [2] = 0.3 mg/kg, QW × 4W, intravenous
# [3] = fractionated 0.3 and 1 mg/kg QW×4W vs single 1 or 3 mg/kg QW×1
substance,measurement,setting,value
"MGC018: B7-H3-ADC: Light and Heavy Chain of anti-B7-H3 hmAb-A (SEQ ID NO:19, 20) conjugated via maleimide, valine-citrulline, para-aminobenzyloxycarbonyl linker to seco-DUBA payload",% T/C at Day 50,Calu-6 lung cancer cells; [2],61%
same,Anti-Tumor Activity,Calu-6 lung cancer cells; [2],Inactive
same,CR (complete regression),Calu-6 lung cancer cells; [2],0/6
same,PR (partial regression),Calu-6 lung cancer cells; [2],0/6
same,% T/C at Day 50,"Calu-6 lung cancer cells; 1 mg/kg, QW × 1, intravenous",49%
same,Anti-Tumor Activity,"Calu-6 lung cancer cells; 1 mg/kg, QW × 1, intravenous",Inactive
same,CR (complete regression),"Calu-6 lung cancer cells; 1 mg/kg, QW × 1, intravenous",0/6
same,PR (partial regression),"Calu-6 lung cancer cells; 1 mg/kg, QW × 1, intravenous",0/6
same,% T/C at Day 50,"Calu-6 lung cancer cells; 1 mg/kg, QW × 4W, intravenous",17%
same,Anti-Tumor Activity,"Calu-6 lung cancer cells; 1 mg/kg, QW × 4W, intravenous",Active
same,CR (complete regression),"Calu-6 lung cancer cells; 1 mg/kg, QW × 4W, intravenous",0/6
same,PR (partial regression),"Calu-6 lung cancer cells; 1 mg/kg, QW × 4W, intravenous",0/6
same,% T/C at Day 50,"Calu-6 lung cancer cells; 3 mg/kg, QW × 1, intravenous",25%
same,Anti-Tumor Activity,"Calu-6 lung cancer cells; 3 mg/kg, QW × 1, intravenous",Active
same,CR (complete regression),"Calu-6 lung cancer cells; 3 mg/kg, QW × 1, intravenous",0/6
same,PR (partial regression),"Calu-6 lung cancer cells; 3 mg/kg, QW × 1, intravenous",0/6
same,anti-tumor activity of fractionated dose compared with single dose,Calu-6 lung cancer cells; [3],near equivalent anti-tumor activity
same,% T/C at Day 70,[1]; [2],64%
same,Anti-Tumor Activity,[1]; [2],Inactive
same,CR (complete regression),[1]; [2],0/5
same,PR (partial regression),[1]; [2],2/5
same,% T/C at Day 70,"[1]; 1 mg/kg, QW × 1, intravenous",26%
same,Anti-Tumor Activity,"[1]; 1 mg/kg, QW × 1, intravenous",Active
same,CR (complete regression),"[1]; 1 mg/kg, QW × 1, intravenous",0/5
same,PR (partial regression),"[1]; 1 mg/kg, QW × 1, intravenous",4/5
same,% T/C at Day 70,"[1]; 1 mg/kg, QW × 4W, intravenous",22%
same,Anti-Tumor Activity,"[1]; 1 mg/kg, QW × 4W, intravenous",Active
same,CR (complete regression),"[1]; 1 mg/kg, QW × 4W, intravenous",3/5
same,PR (partial regression),"[1]; 1 mg/kg, QW × 4W, intravenous",5/5
same,% T/C at Day 70,"[1]; 3 mg/kg, QW × 1, intravenous",12%
same,Anti-Tumor Activity,"[1]; 3 mg/kg, QW × 1, intravenous",Active
same,CR (complete regression),"[1]; 3 mg/kg, QW × 1, intravenous",5/5
same,PR (partial regression),"[1]; 3 mg/kg, QW × 1, intravenous",5/5
same,anti-tumor activity of fractionated dose compared with single dose,[1]; [3],near equivalent anti-tumor activity
